Assay results taken from EP1609872A1, “A method for selecting a gene involved in nisin resistance in bacteria” (Stichting voor de Technische Wetenschappen, priority 2004, dated 2005).

Key:
L. lactis IL1403 Nis^R = test: MIC determination (nisin sensitivity assay); assay type: cell-based, Lactococcus lactis
Protocol: Generation of nisin-resistant variants of L. lactis IL1403― A nisin stock solution was derived from nisaplin, (2.5% nisin, Aplin and Barrett, Danisco, Denmark) as described earlier (44). Nisin-resistant isogenic variants of L. lactis IL1403 were obtained by growing the strain in broth, while stepwise increasing the nisin concentration, as described before (29).
Nisin sensitivity assays― Sensitivity to nisin was determined essentially as described before (32) for the strains L. lactis NZ9000, L. lactis NZ9000 ΔgalAMK, L. lactis MG1363 and L. lactis MG1363 ΔdltD (16). For the strains of L. lactis NZ9000 (pNZ8048) and L. lactis NZ9000 (pJK1), the cells were diluted 50-fold in fresh medium. At an OD600 of 0.2 the cells of both cultures were induced with 4 µg/L nisin for 2 h. Nisin induction of PnisA in the pNZ8048 derivatives was performed as described by de Ruyter et al. (12). Outgrowth in all wells was determined at the moment when wells containing cells without nisin had reached an OD595 of 0.8, measured in an ELISA micro titer plate reader (Spectramax plus 384, Molecular Devices, Wageningen, the Netherlands). MIC values were calculated from the lowest concentration of nisin at which growth of the test strain was inhibited.

M. flavus Nis^R = test: Determination of the Minimal Inhibitory Concentration (Example 2); assay type: cell-based, Micrococcus flavus; conditions: cross-resistance of the Nis^R strains
Protocol: M. flavus and L. lactis were grown overnight at their optimum growth conditions. The Nis^R variants were grown in the presence of nisin (3 mg/L). The MIC values were estimated essentially as described before (23).

C=C1NC(=O)[C@@H]2NC(=O)[C@H](CC(C)C)NC(=O)[C@H](NC(=O)[C@@H]3CS[C@@H](C)[C@@H](NC(=O)[C@H](Cc4ccccc4)NC(=O)[C@@H]4NC(=O)[C@@H](N)CS[C@H]4C)C(=O)N[C@@H](CC(C)C)C(=O)N4CCC[C@H]4C(=O)NCC(=O)NCC(=O)NCC(=O)NCC(=O)N[C@@H](C(C)C)C(=O)N3)[C@H](C)SC[C@H](NC(=O)[C@H](CCC(=O)O)NC1=O)C(=O)N[C@@H]([C@@H](C)CC)C(=O)N/C=C\S[C@H]2C [Mersacidin, mersacidin]
cross-resistance (L. lactis IL1403 Nis^R): no cross-resistance
change in MIC in the nisin resistant strain (M. flavus Nis^R): No change
